# According to article PMC12040169 (PLOS Biology, 2025):
# Assay: in vitro
# Conditions: human, hela cells, % viability
row,SMILES,"viability at 28.5 h, 10 µM"
1,CCCc1c(O)n[nH]c1Cc1ccc(Cl)cc1 [CBK078564],104%
2,CCOC(=O)c1sc(-c2ccc3c(c2)OCO3)nc1O [CBK078565],97.2%
3,Cc1ccc2c(c1)CC(=O)NC21CCN(CCc2noc3ccccc23)CC1 [CBK081072],92.2%
4,Cn1cc(CCO)c2ccccc21 [CBK081087],109%
5,CCCc1[nH]nc(O)c1CCc1c(F)cccc1Cl [CBK081121],93.8%
6,CCCc1[nH]nc(O)c1CC1CC1 [CBK081129],110%
7,COc1ccc([C@]23CN(C)C[C@H]2CCN(C(=O)Nc2ccc(Cl)c(F)c2)C3)cc1OC [CBK081140T],98.3%
8,Nc1ccc2cc(-c3ccsc3)cnc2n1 [CBK081167],101%
9,Nc1ccc2cc(-c3cccc(OCc4ccccc4)c3)cnc2n1 [CBK081172],108%
10,Nc1cc2cccnc2c(-c2cccc(C(F)(F)F)c2)n1 [CBK081177],106%
11,COc1ccc(C(C)C)cc1-c1nc(N)cc2cccnc12 [CBK081178],99.6%
12,CC(C)(C)c1ccc(-c2cc3ncccc3nc2N)cc1 [CBK081199],80.4%
13,COc1ccc(C(C)C)cc1-c1cc2ncccc2nc1N [CBK081202],89.3%
14,Nc1c(-c2ccsc2)cnc2cccnc12 [CBK081208],87.8%
15,COc1ccc(C(C)C)cc1-c1cnc2nc(N)ccc2c1 [CBK081216],97.7%
16,Nc1cc2cccnc2c(-c2ccsc2)n1 [CBK081218],89.6%
17,CCNC(=O)Nc1cc2cccnc2c(-c2ccsc2)n1 [CBK081226],106%
18,CCNC(=O)Nc1nc2cccnc2cc1-c1ccccc1 [CBK081239],101%
19,CC(C)C(=O)Nc1cc2cccnc2c(-c2ccc3c(c2)CCO3)n1 [CBK081260],114%
20,COc1ccc(C(C)C)cc1-c1cnc2nc(O)ccc2c1 [CBK081286],94.1%
21,CC(C)C(=O)Nc1cc2cccnc2c(-c2ccccc2)n1 [CBK081287],92.2%
22,Oc1nc2cccnc2cc1-c1ccc2c(c1)OCCCO2 [CBK081299],96%

row,SMILES,"viability at 28.5 h, 10 µM"
1,Oc1ccc2cc(-c3ccc(OC(F)(F)F)cc3)cnc2n1 [CBK081300],32.8%
2,CC(C)(C)c1ccc(-c2cc3ncccc3nc2O)cc1 [CBK081302],97.1%
3,CCC1CCCCN1C(=O)c1c(Cl)cccc1Cl (centres unmarked) [CBK081303],99.3%
4,COc1ccc([C@@]23CC[C@@H](NC(=O)Nc4cccc(Cl)c4)C[C@@H]2CN(C)C3)cc1OC [CBK081375T],96.8%
5,CCCc1[nH]nc(O)c1CCc1c(Cl)cccc1Cl [CBK081403],112%
6,CCC1CCCCN1C(=O)c1sc2ncccc2c1N (centres unmarked) [CBK081410],112%
7,COc1ccc(CN2CCC(C(=O)NC(c3ccc(OC)nc3)c3ccccc3C)CC2)cc1 (centres unmarked) [CBK081445T],86.7%
8,COc1ccc(C(NC(=O)C2CCN(Cc3ccc(OC)c(OC)c3)CC2)c2ccccc2C)cn1 (centres unmarked) [CBK081452T],99.7%
9,COC(=O)[C@H](NC(=O)C1CCN(C(=O)OCc2ccccc2)CC1)c1ccccc1 [CBK081466],88.1%
10,COC(=O)[C@@H](NC(=O)C1CCN(C(=O)OCc2ccccc2)CC1)c1ccccc1 [CBK081468],107%
11,COc1ccc(C(NC(=O)N2CCN(C(=O)OCc3ccccc3)CC2)c2ccccc2C)cn1 (centres unmarked) [CBK081469],91.2%
12,Oc1ccc2[nH]c3c(c2c1)CCNC31CCN(CCOc2ccccc2)C1 (centres unmarked) [CBK081496],85.9%
13,CCc1ccccc1C(=O)N1CCCCC1CC (centres unmarked) [CBK081556],81.9%
14,CCC1CCCCN1C(=O)c1ccc(C)c(Br)c1 (centres unmarked) [CBK081559],100%
15,C[N+]1([O-])CCN(c2nccn(CCOc3cc(F)c(F)cc3F)c2=O)CC1 [CBK081593],101%
16,CCC1CCCCN1C(=O)c1cc(C)ccc1F (centres unmarked) [CBK082754],108%
17,Cc1ccc(C(F)(F)F)cc1NS(=O)(=O)c1cc(OC2CCNCC2)c2occc2c1 [CBK082763C],90.1%
18,Clc1ccc(CN2CCN(c3nccnc3OCC3COc4ccccc4O3)CC2)cc1 (centres unmarked) [CBK082786T],101%
19,FC(F)(F)c1ccc(CN2CCN(c3nccnc3OCC3COc4ccccc4O3)CC2)cc1 (centres unmarked) [CBK082789T],115%
20,Cc1cccc(C)c1NC(=O)CN1CCN(c2nccnc2OCC2COc3ccccc3O2)CC1 (centres unmarked) [CBK082801T],88.9%
21,CCN(CC)C(=O)CN1CCN(c2nccnc2OCC2COc3ccccc3O2)CC1 (centres unmarked) [CBK082803T],96.5%
22,COc1ccc(CCN2CCN(c3nccnc3OCC3COc4ccccc4O3)CC2)cc1OC (centres unmarked) [CBK082808T],104%

row,SMILES,"viability at 28.5 h, 10 µM"
1,O=S(=O)(Nc1cc(F)cc(F)c1F)c1cc(OC2CCNCC2)c2occc2c1 [CBK082814C],83.9%
2,Cc1cccc(C)c1NC(=O)CN1CCN(c2nccnc2OC2CCCCC2)CC1 [CBK082835T],103%
3,CCOC(=O)CN1CCN(c2nccnc2OC2CCCCC2)CC1 [CBK082837T],102%
4,Clc1ccc(CN2CCC(Oc3nccnc3OC3CCCCC3)CC2)cc1 [CBK082856T],101%
5,CCOC(=O)CN1CCC(Oc2nccnc2OC2CCCCC2)CC1 [CBK082867T],106%
6,N#CCCCN1CCC(Oc2nccnc2OC2CCCCC2)CC1 [CBK082871T],101%
7,CSCCN1CCC(Oc2nccnc2OC2CCCCC2)CC1 [CBK082873T],97%
8,Clc1ccc(CN2CCN(c3nccnc3OCCN3CCOCC3)CC2)cc1Cl [CBK082884T],96.7%
9,Clc1ccc(CN2CCN(c3nccnc3OCCN3CCOCC3)CC2)cc1 [CBK082887T],97.4%
10,FC(F)(F)c1ccc(CN2CCN(c3nccnc3OCCN3CCOCC3)CC2)cc1 [CBK082890T],90.8%
11,c1ccc(-c2ccccc2CN2CCN(c3nccnc3OCCN3CCOCC3)CC2)cc1 [CBK082893T],90.7%
12,CCOC(=O)CN1CCN(c2nccnc2OCCN2CCOCC2)CC1 [CBK082897],93.9%
13,c1cnc(N2CCN(CCN3CCOCC3)CC2)c(OCCN2CCOCC2)n1 [CBK082899],105%
14,c1ccc2cc(CCN3CCN(c4nccnc4OCCN4CCOCC4)CC3)ccc2c1 [CBK082911T],87.6%
15,COc1ccc(CN2CCC(Oc3nccnc3OCCN3CCOCC3)CC2)cc1 [CBK082922T],90.8%
16,c1ccc(-c2ccccc2CN2CCC(Oc3nccnc3OCCN3CCOCC3)CC2)cc1 [CBK082924T],102%
17,Fc1ccc(CCN2CCC(Oc3nccnc3OCCN3CCOCC3)CC2)cc1 [CBK082937T],88.3%
18,c1cnc(OC2CCN(CC3CCCCC3)CC2)c(OCCN2CCOCC2)n1 [CBK082941T],87.3%
19,Cc1cc(COc2nccnc2OC2CCN(Cc3ccccc3F)CC2)no1 [CBK082948T],109%
20,COc1ccc(CN2CCC(Oc3nccnc3OCc3cc(C)on3)CC2)cc1 [CBK082953T],93.7%
21,CCN(CC)C(=O)CN1CCC(Oc2nccnc2OCc2cc(C)on2)CC1 [CBK082959T],102%
